Laboratory results reported in ChEMBL document CHEMBL1147792, “Functional organisation and gain of activity: the case of the antibacterial tetra-para-guanidinoethyl-calix[4]arene” (Bioorg Med Chem Lett, 2006).
Where “and” joins values, the source holds several entries; their conditions need not be identical. Identical values can stand only once. Calls of active or inactive are those of the source. The rule behind the calls is not given here.

How the values were obtained:
Escherichia coli [1] = test: Antibacterial activity against Escherichia coli ATCC 25922 at 65 ug by disk diffusion method; type: functional, organism-based
Pseudomonas aeruginosa [2] = test: Antibacterial activity against Pseudomonas aeruginosa ATCC 27853 at 256 ug by disk diffusion method; type: functional, organism-based
Enterococcus faecalis [3] = test: Antibacterial activity against Enterococcus faecalis ATCC 29212 at 256 ug by disk diffusion method; type: functional, organism-based
Staphylococcus aureus [4] = test: Antibacterial activity against Staphylococcus aureus ATCC 25923 at 256 ug by disk diffusion method; type: functional
Escherichia coli [5] = test: Antibacterial activity against Escherichia coli ATCC 25922; type: functional
Staphylococcus aureus [6] = test: Antibacterial activity against Staphylococcus aureus ATCC 25923 at 65 ug by disk diffusion method; type: functional, organism-based
Escherichia coli [7] = test: Antibacterial activity against Escherichia coli ATCC 25922 at 256 ug by disk diffusion method; type: functional
MRC5 [8] = test: Ratio of IC50 for viability of MRC5 cells after 48 to MIC for Pseudomonas aeruginosa ATCC 27853; type: functional
Pseudomonas aeruginosa [9] = test: Antibacterial activity against Pseudomonas aeruginosa ATCC 27853 at 128 ug by disk diffusion method; type: functional, organism-based
Staphylococcus aureus [10] = test: Antibacterial activity against Staphylococcus aureus ATCC 25923 at 32 ug by disk diffusion method; type: functional, organism-based
Staphylococcus aureus [11] = test: Antibacterial activity against Staphylococcus aureus ATCC 25923 at 128 ug by disk diffusion method; type: functional, organism-based
Pseudomonas aeruginosa [12] = test: Antibacterial activity against Pseudomonas aeruginosa ATCC 27853 at 65 ug by disk diffusion method; type: functional, organism-based
Pseudomonas aeruginosa [13] = test: Antibacterial activity against Pseudomonas aeruginosa ATCC 27853 at 32 ug by disk diffusion method; type: functional, organism-based
MRC5 [14] = test: Ratio of IC50 for viability of MRC5 cells after 48 to MIC for Staphylococcus aureus ATCC 25923; type: functional
MRC5 [15] = test: Ratio of IC50 for viability of MRC5 cells after 48 to MIC for Enterococcus faecalis ATCC 29212; type: functional
Staphylococcus aureus [16] = test: Antibacterial activity against Staphylococcus aureus ATCC 25923; type: functional
Escherichia coli [17] = test: Antibacterial activity against Escherichia coli ATCC 25922 at 128 ug by disk diffusion method; type: functional, organism-based
MRC5 [18] = test: Ratio of IC50 for viability of MRC5 cells after 48 hrs to MIC for Escherichia coli ATCC 25922; type: functional
Escherichia coli [19] = test: Antibacterial activity against Escherichia coli ATCC 25922 at 32 ug by disk diffusion method; type: functional, organism-based
Enterococcus faecalis [20] = test: Antibacterial activity against Enterococcus faecalis ATCC 29212; type: functional
Pseudomonas aeruginosa [21] = test: Antibacterial activity against Pseudomonas aeruginosa ATCC 27853; type: functional
MRC5 [22] = test: Viability of human MRC5 cells after 48 hrs; type: functional, cell-based; settings: MRC5, 48 h
Enterococcus faecalis [23] = test: Antibacterial activity against Enterococcus faecalis ATCC 29212 at 32 ug by disk diffusion method; type: functional, organism-based
Enterococcus faecalis [24] = test: Antibacterial activity against Enterococcus faecalis ATCC 29212 at 128 ug by disk diffusion method; type: functional, organism-based
Enterococcus faecalis [25] = test: Antibacterial activity against Enterococcus faecalis ATCC 29212 at 65 ug by disk diffusion method; type: functional, organism-based
Escherichia coli [26] = test: Antibacterial activity against Escherichia coli ATCC 25922 against at 135 ug by disk diffusion method; type: functional
Enterococcus faecalis [27] = test: Antibacterial activity against Enterococcus faecalis ATCC 29212 at 34 ug by disk diffusion method; type: functional, organism-based
Pseudomonas aeruginosa [28] = test: Antibacterial activity against Pseudomonas aeruginosa ATCC 27853 at 67 ug by disk diffusion method; type: functional, organism-based
Escherichia coli [29] = test: Antibacterial activity against Escherichia coli ATCC 25922 at 34 ug by disk diffusion method; type: functional, organism-based
Enterococcus faecalis [30] = test: Antibacterial activity against Enterococcus faecalis ATCC 29212 at 67 ug by disk diffusion method; type: functional
Pseudomonas aeruginosa [31] = test: Antibacterial activity against Pseudomonas aeruginosa ATCC 27853 at 34 ug by disk diffusion method; type: functional, organism-based
Staphylococcus aureus [32] = test: Antibacterial activity against Staphylococcus aureus ATCC 25923 at 270 ug by disk diffusion method; type: functional
Enterococcus faecalis [33] = test: Antibacterial activity against Enterococcus faecalis ATCC 29212 at 135 ug by disk diffusion method; type: functional
Pseudomonas aeruginosa [34] = test: Antibacterial activity against Pseudomonas aeruginosa ATCC 27853 at 135 ug by disk diffusion method; type: functional, organism-based
Pseudomonas aeruginosa [35] = test: Antibacterial activity against Pseudomonas aeruginosa ATCC 27853 at 270 ug by disk diffusion method; type: functional
Enterococcus faecalis [36] = test: Antibacterial activity against Enterococcus faecalis ATCC 29212 at 270 ug by disk diffusion method; type: functional
Escherichia coli [37] = test: Antibacterial activity against Escherichia coli ATCC 25922 at 67 ug by disk diffusion method; type: functional
Staphylococcus aureus [38] = test: Antibacterial activity against Staphylococcus aureus ATCC 25923 at 135 ug by disk diffusion method; type: functional
Escherichia coli [39] = test: Antibacterial activity against Escherichia coli ATCC 25922 at 270 ug by disk diffusion method; type: functional
Staphylococcus aureus [40] = test: Antibacterial activity against Staphylococcus aureus ATCC 25923 at 67 ug by disk diffusion method; type: functional
Staphylococcus aureus [41] = test: Antibacterial activity against Staphylococcus aureus ATCC 25923 at 34 ug by disk diffusion method; type: functional

Question: What does the source list for `N=C(N)NCCc1ccc(O)cc1.O=C(O)C(F)(F)F`?
Answer: inhibition zone (IZ) (Escherichia coli [1]): inactive; inhibition zone (IZ) (Pseudomonas aeruginosa [2]): inactive; inhibition zone (IZ) (Enterococcus faecalis [3]): inactive; inhibition zone (IZ) (Staphylococcus aureus [4]): 7.8 mm; MIC (Escherichia coli [5]): 512 µg/mL and 1750 µM; inhibition zone (IZ) (Staphylococcus aureus [6]): inactive; inhibition zone (IZ) (Escherichia coli [7]): 7.6 mm; Selectivity index (MRC5 [8]): 0.48; inhibition zone (IZ) (Pseudomonas aeruginosa [9]): inactive; inhibition zone (IZ) (Staphylococcus aureus [10]): inactive; inhibition zone (IZ) (Staphylococcus aureus [11]): inactive; inhibition zone (IZ) (Pseudomonas aeruginosa [12]): inactive; inhibition zone (IZ) (Pseudomonas aeruginosa [13]): inactive; Selectivity index (MRC5 [14]): 0.48; Selectivity index (MRC5 [15]): <=0.48; MIC (Staphylococcus aureus [16]): 512 µg/mL and 1750 µM; inhibition zone (IZ) (Escherichia coli [17]): inactive; Selectivity index (MRC5 [18]): 0.48; inhibition zone (IZ) (Escherichia coli [19]): inactive; MIC (Enterococcus faecalis [20]): ≥ 512 µg/mL and 1750 µM; MIC (Pseudomonas aeruginosa [21]): 512 µg/mL and 1750 µM; IC50 (MRC5 [22]): 850 µM; inhibition zone (IZ) (Enterococcus faecalis [23]): inactive; inhibition zone (IZ) (Enterococcus faecalis [24]): inactive; inhibition zone (IZ) (Enterococcus faecalis [25]): inactive

Question: `N=C(N)NCCc1cc2c(O)c(c1)Cc1cc(CCNC(=N)N)cc(c1O)Cc1cc(CCNC(=N)N)cc(c1O)Cc1cc(CCNC(=N)N)cc(c1O)C2.O=C(O)C(F)(F)F.O=C(O)C(F)(F)F.O=C(O)C(F)(F)F.O=C(O)C(F)(F)F` was tested. Which inhibition zone (IZ) (Escherichia coli [26]) did it give?
Answer: The inhibition zone (IZ) was 9.3 mm.

Question: What about the “inhibition zone (IZ)” value (Enterococcus faecalis [27]) of the same molecule?
Answer: The value was “inactive”.

Question: What about the “inhibition zone (IZ)” value (Pseudomonas aeruginosa [28]) of the same molecule?
Answer: Its value is “inactive”.

Question: What about the “inhibition zone (IZ)” value (Escherichia coli [29]) of the same molecule?
Answer: Its value is “inactive”.

Question: What about the inhibition zone (IZ) (Enterococcus faecalis [30]) of the same molecule?
Answer: Its inhibition zone (IZ) is 6.6 mm.

Question: What about the “inhibition zone (IZ)” value (Pseudomonas aeruginosa [31]) of the same molecule?
Answer: The value was “inactive”.

Question: And the MIC (Escherichia coli [5])?
Answer: Its MIC is 16 µg/mL and 13 µM.

Question: And the inhibition zone (IZ) (Staphylococcus aureus [32])?
Answer: Its inhibition zone (IZ) is 11 mm.

Question: What about the inhibition zone (IZ) (Enterococcus faecalis [33]) of the same molecule?
Answer: The inhibition zone (IZ) was 8.3 mm.

Question: And the “inhibition zone (IZ)” value (Pseudomonas aeruginosa [34])?
Answer: Its value is “inactive”.

Question: What about the Selectivity index (MRC5 [8]) of the same molecule?
Answer: Its Selectivity index is 43.

Question: And the inhibition zone (IZ) (Pseudomonas aeruginosa [35])?
Answer: The inhibition zone (IZ) was 7.8 mm.

Question: And the inhibition zone (IZ) (Enterococcus faecalis [36])?
Answer: The inhibition zone (IZ) was 10 mm.

Question: And the inhibition zone (IZ) (Escherichia coli [37])?
Answer: The inhibition zone (IZ) was 7.3 mm.

Question: And the inhibition zone (IZ) (Staphylococcus aureus [38])?
Answer: The inhibition zone (IZ) was 9 mm.

Question: What about the inhibition zone (IZ) (Escherichia coli [39]) of the same molecule?
Answer: The inhibition zone (IZ) was 11.2 mm.

Question: And the Selectivity index (MRC5 [14])?
Answer: Its Selectivity index is 43.

Question: What about the inhibition zone (IZ) (Staphylococcus aureus [40]) of the same molecule?
Answer: The inhibition zone (IZ) was 8 mm.

Question: What about the Selectivity index (MRC5 [15]) of the same molecule?
Answer: The Selectivity index was 11.

Question: What about the MIC (Staphylococcus aureus [16]) of the same molecule?
Answer: The MIC was 16 µg/mL and 13 µM.

Question: What about the Selectivity index (MRC5 [18]) of the same molecule?
Answer: The Selectivity index was 43.

Question: And the MIC (Enterococcus faecalis [20])?
Answer: Its MIC is 64 µg/mL and 51 µM.

Question: And the inhibition zone (IZ) (Staphylococcus aureus [41])?
Answer: Its inhibition zone (IZ) is 6.3 mm.

Question: And the MIC (Pseudomonas aeruginosa [21])?
Answer: Its MIC is 16 µg/mL and 13 µM.

Question: And the IC50 (MRC5 [22])?
Answer: The IC50 was 560 µM.
